In US20220387405A1, “METHODS OF TREATMENT WITH N-((R)-1-(3-CHLOROPYRIDIN-2-YL)-2,2,2-TRIFLUOROETHYL)-2-((S)-2,6-DIOXOPIPERIDIN-3-YL)-1-OXOISOINDOLINE-5-CARBOXAMIDE” (CELGENE CORPORATION, priority 2021, published 2022):

What was measured:
[1] = Nonclinical pharmacokinetics in monkeys; type: in vivo
Excerpt: (§1) The systemic clearance of Compound 1 was low and the volume of distribution was high in rats and monkeys. […] Notable sex differences in PK were not observed in either species. Compound 1 had good oral bioavailability (≥50%) in rats and monkeys.

[2] = test system: MV-4-11 AML xenograft model; experiment: Single dose PK/PD and efficacy studies, MV-4-11 AML xenograft model; type: in vivo, mice
Protocol: The CK1α degradation activity and subsequent antitumor activity of Compound 1 in vivo was tested in two TP53 WT AML cell line-derived xenograft models. The depth and duration of CK1α degradation was dose-dependent.
Based on single dose pharmacokinetic (PK)/pharmacodynamics (PD) and efficacy studies with the MV-4-11 AML xenograft model, nearly 90% degradation of CK1α at 2 hours post-dose and 50% suppression through 16 hours a day was maintained when the tumor Compound 1 concentration was >0.1 μM. Maintenance of >0.1 μM Compound 1 in tumor, and this degree of CK1α degradation with daily dosing at 3 mg/kg, led to a 73-99% reduction in tumor burden with significant survival benefit.

[3] = test system: Salmonella typhimurium strains (TA1535, TA1537, TA98, TA100); experiment: Bacterial reverse mutation test, Salmonella typhimurium; type: cell-based
Protocol: (§2) Compound 1 was tested in Salmonella typhimurium strains (TA1535, TA1537, TA98, TA100) and Escherichia coli strain WP2 uvrA at a range of concentrations up to 5000 μg/plate (the standard limit concentration for this assay), in the presence and absence of a supplemented rat liver fraction (S9 mix), using the plate incorporation version of the bacterial reverse mutation test. Dimethyl sulfoxide (DMSO) was used as the solvent.
(§3) The mean revertant colony counts for the negative controls were within the laboratory historical control range. Bacteria were also incubated with standard positive controls, and the response of the various bacterial strains to these agents confirmed the sensitivity of the test system and the activity of the S9 mix. Therefore, the results from both the negative and positive controls confirmed the validity of the assay.
(§4) No substantial increases in revertant colony numbers were obtained with any of the tester strains, following exposure to Compound 1 at any concentration, in either the presence or absence of S9 mix. Therefore, Compound 1 was considered to be negative for the induction of mutagenicity in this in vitro assay.

[4] = test system: leukemic cells from TP53 WT AML patients; experiment: PharmaFlow test (Vivia), cytotoxic effect on leukemic cells in AML patient BM samples; type: cell-based, human
[5] = Nonclinical pharmacokinetics in rats; type: in vivo
Excerpt: as §1

[6] = test system: CD34+ cells from BM samples of TP53 WT AML donors; experiment: Liquid culture of CD34+ cells from TP53 WT AML donors (FACS); type: cell-based, human
Protocol: (§5) CD34^+ cells isolated from BM samples of 3 TP53 WT AML donors and 3 healthy donors were treated with increasing concentrations of Compound 1 in liquid culture at times ranging from 4 hours to 5 days. […] Acute myeloid leukemia blasts sustained CK1α degradation up to 5 days in culture as assessed by fluorescence-activated cell sorting (FACS) analysis. Strikingly, p53 stabilization was sustained longer in leukemic cells (up to 48 hours) compared with normal BM cells (for 24 hours).

[7] = test system: blasts in TP53 WT AML samples; experiment: 5-day liquid culture of AML patient BM cells; type: cell-based, human
[8] = test system: Escherichia coli strain WP2 uvrA; experiment: Bacterial reverse mutation test, Escherichia coli; type: cell-based
Protocol: as §2, §3, §4

[9] = test system: leukemic progenitors from BM samples of AML patients; experiment: Colony forming assay (CFU-GM) with BM samples of AML patients; type: cell-based, human; conditions: TP53 WT AML samples (14 of 18), compared to vehicle control
Protocol: Ex vivo activity of Compound 1 was evaluated in normal and leukemic progenitors from BM samples of 25 AML patients using colony forming assays. […] The effect of Compound 1 on CK1α degradation, p53 accumulation, and activation is concentration- and time-dependent.

CYP1A2 = target: T1, CYP1A2 (Homo sapiens, UniProt P05177); experiment: CYP inhibition in human liver microsomes, CYP1A2; type: in vitro ADME
T1 construct: In human liver microsomes; from tissue; host or cells: human liver microsomes
T1 sequence (P05177 whole entry): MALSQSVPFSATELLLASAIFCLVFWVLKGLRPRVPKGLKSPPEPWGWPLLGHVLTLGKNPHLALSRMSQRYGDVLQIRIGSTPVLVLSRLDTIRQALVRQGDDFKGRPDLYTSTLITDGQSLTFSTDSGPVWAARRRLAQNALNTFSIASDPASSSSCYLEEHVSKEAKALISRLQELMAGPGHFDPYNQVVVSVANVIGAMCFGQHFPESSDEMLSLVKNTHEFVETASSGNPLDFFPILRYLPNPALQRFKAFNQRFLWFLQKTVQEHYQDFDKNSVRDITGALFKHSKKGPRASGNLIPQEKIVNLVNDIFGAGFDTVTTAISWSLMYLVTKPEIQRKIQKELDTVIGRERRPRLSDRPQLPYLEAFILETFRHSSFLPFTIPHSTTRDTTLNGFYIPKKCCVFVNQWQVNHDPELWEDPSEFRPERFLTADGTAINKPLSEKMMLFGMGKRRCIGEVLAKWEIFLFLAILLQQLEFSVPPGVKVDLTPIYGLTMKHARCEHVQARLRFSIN

[10] = test system: CD34+ cells from BM samples of healthy donors; experiment: Liquid culture of CD34+ cells from healthy donors (FACS); type: cell-based, human
Protocol: as §5

CYP3A4/5 = experiment: Enzymatic metabolism (enzyme identification); type: in vitro ADME
Excerpt: Compound 1 underwent non-enzymatic hydrolysis, oxidation, N-dealkylation, glucuronidation and a combination of these pathways in hepatocytes of human and animal species. Although there were quantitative differences in the formation of Compound 1 metabolites across species, qualitatively all metabolites formed in human hepatocytes were also observed in hepatocytes and plasma of rats and/or monkeys, the two species used for nonclinical safety testing. Following multiple oral administrations of Compound 1 to rats and monkeys, Compound 1 was the predominant component in plasma of both species. The metabolites observed in plasma were similar to those observed in hepatocytes.

CYP2A6 = target: T2, CYP2A6 (Homo sapiens, UniProt P11509); experiment: CYP inhibition in human liver microsomes, CYP2A6; type: in vitro ADME
T2 construct: In human liver microsomes; from tissue; host or cells: human liver microsomes
T2 sequence (P11509 whole entry): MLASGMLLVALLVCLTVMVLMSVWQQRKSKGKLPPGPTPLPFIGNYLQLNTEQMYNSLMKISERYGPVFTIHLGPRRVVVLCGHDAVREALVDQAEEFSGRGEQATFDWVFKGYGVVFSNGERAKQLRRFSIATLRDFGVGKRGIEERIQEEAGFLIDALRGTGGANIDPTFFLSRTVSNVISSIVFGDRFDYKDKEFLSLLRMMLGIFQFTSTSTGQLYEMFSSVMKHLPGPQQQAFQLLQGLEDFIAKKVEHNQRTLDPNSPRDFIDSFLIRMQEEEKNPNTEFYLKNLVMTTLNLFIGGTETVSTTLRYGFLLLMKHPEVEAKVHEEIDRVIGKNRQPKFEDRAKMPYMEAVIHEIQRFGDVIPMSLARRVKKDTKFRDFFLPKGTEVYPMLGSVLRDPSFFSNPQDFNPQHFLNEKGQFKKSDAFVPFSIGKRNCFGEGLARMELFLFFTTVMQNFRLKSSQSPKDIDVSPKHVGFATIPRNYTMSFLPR

Plasma protein binding = type: in vitro ADME, human and nonclinical species
Excerpt: There was no marked difference in free fraction among human, rat and monkey. Over the concentration ranges tested (25- to 50-fold range) in each species, there was <2-fold change in free fraction.

CYP2C8 = target: T3, CYP2C8 (Homo sapiens, UniProt P10632); experiment: CYP inhibition in human liver microsomes, CYP2C8; type: in vitro ADME
T3 construct: In human liver microsomes; from tissue; host or cells: human liver microsomes
T3 sequence (P10632 whole entry): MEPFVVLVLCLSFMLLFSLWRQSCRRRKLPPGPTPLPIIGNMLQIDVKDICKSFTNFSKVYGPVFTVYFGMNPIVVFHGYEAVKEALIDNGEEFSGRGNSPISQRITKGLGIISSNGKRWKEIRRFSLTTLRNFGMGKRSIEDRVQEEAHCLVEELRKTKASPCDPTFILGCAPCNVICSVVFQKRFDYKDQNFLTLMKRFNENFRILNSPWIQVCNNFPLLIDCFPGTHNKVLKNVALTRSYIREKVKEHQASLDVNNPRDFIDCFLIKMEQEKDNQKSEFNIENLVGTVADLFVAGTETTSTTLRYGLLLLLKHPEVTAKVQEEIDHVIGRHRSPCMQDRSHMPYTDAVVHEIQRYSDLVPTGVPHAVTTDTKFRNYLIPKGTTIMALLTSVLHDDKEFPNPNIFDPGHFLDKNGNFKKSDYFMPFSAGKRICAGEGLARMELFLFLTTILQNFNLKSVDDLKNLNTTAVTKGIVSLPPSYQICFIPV

[11] = test system: Normal T lymphocytes in BM samples; experiment: PharmaFlow test, normal T lymphocytes in AML patient BM samples; type: cell-based, human; conditions: BM samples of AML patients; for Compound 1 all but 1 patient
[12] = up to 5000 μg/plate, presence and absence of S9 mix

O=C1CC[C@H](N2Cc3cc(C(=O)N[C@H](c4ncccc4Cl)C(F)(F)F)ccc3C2=O)C(=O)N1 [Compound 1, N-((R)-1-(3-chloropyridin-2-yl)-2,2,2-trifluoroethyl)-2-((S)-2,6-dioxopiperidin-3-yl)-1-oxoisoindoline-5-carboxamide]
accumulation following multiple doses [1]: No accumulation | systemic clearance [1]: low | volume of distribution [1]: high | bioavailability ([1]; monkey, in vivo, po): ≥ 50% | half-life ([1]; monkey, in vivo, read-out: terminal half-life): 2.3 to 4.4 h | degradation of CK1α ([2]; 2 hours post-dose, tumor concentration >0.1 μM): ~90% | CK1α degradation in AML xenograft tumors ([2]; AML xenograft tumors): significantly degraded | reduction in tumor burden ([2]; daily dosing at 3 mg/kg): 73-99% | suppression of CK1α ([2]; maintained through 16 hours a day, tumor concentration >0.1 μM): 50% | toxicity to the bacteria ([3]; highest concentrations tested): non-toxic | induction of mutagenicity (revertant colony numbers) [3, 12]: negative | IC50 ([4]; Homo sapiens): 22 to 412 nM | number of BM samples with sensitive leukemic cells ([4]; out of 9 AML patient BM samples): 5 | accumulation following multiple doses [5]: No accumulation | systemic clearance [5]: low | volume of distribution [5]: high | bioavailability ([5]; rat, in vivo, po): ≥ 50% | half-life ([5]; rat, in vivo, read-out: terminal half-life): 1.5 to 1.7 h | duration of sustained CK1α degradation ([6]; AML blasts in culture, FACS): up to 5 days | cellular outcome ([6]; leukemic cells): apoptotic outcome | duration of sustained p53 stabilization ([6]; leukemic cells): up to 48 hours | total blast numbers ([7]; 5 days in liquid culture, all TP53 WT AML samples tested, vs vehicle control): deeply decreased | IC50 ([7]; liquid culture, apoptosis and cell cycle arrest, all samples): nanomolar range | toxicity to the bacteria ([8]; highest concentrations tested): non-toxic | induction of mutagenicity (revertant colony numbers) [8, 12]: negative | samples with inhibited formation of CFU-GM colonies [9]: 77.8% | time-dependent inhibition (CYP1A2; CYP1A2, 30-minute preincubation with NADPH): not a time-dependent inhibition | inhibitory effect (CYP1A2; human liver microsomes, CYP1A2): ≤ 25% | duration of sustained p53 stabilization ([10]; normal BM cells): 24 h | cellular outcome ([10]; normal cells): Cycle arrest | enzymatic metabolism (CYP3A4/5): primarily mediated by CYP3A4/5 | time-dependent inhibition (CYP2A6; CYP2A6, 30-minute preincubation with NADPH): not a time-dependent inhibition | inhibitory effect (CYP2A6; human liver microsomes, CYP2A6): ≤ 25% | change in free fraction (Plasma protein binding; over the concentration ranges tested (25- to 50-fold range) in each species): < 2 fold | fraction unbound (Plasma protein binding; plasma, human and nonclinical species): 0.007 to 0.103 | time-dependent inhibition (CYP2C8; CYP2C8, 30-minute preincubation with NADPH): not a time-dependent inhibition | IC50 (CYP2C8; human liver microsomes, CYP2C8): > 30000 nM | cytotoxicity in T lymphocytes [11]: noticeably more resistant
